In ChEMBL document CHEMBL1201862, “PubChem BioAssay data set” (2004):
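Briefly, cells in 96-well plates were exposed to five compound concentrations for 48 h, and endpoints were estimated by linear interpolation. GI50 marks 50% less growth.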 Active and inactive are the calls of the source. Rule as the data show it: active = GI50 up to about 1.1 µM and inactive = higher.

Columns and labels:
Experiment in all cases: inhibition of tumour cell growth, NCI panel, 48 h
ACHN = system: ACHN
CAKI-1 = system: CAKI-1
COLO 205 = system: COLO 205
EKVX = system: EKVX
HCT-15 = system: HCT-15
MCF7 = system: MCF7
MDA-N = system: MDA-N
NCI-H23 = system: NCI-H23
NCI-H522 = system: NCI-H522
NCI/ADR-RES = system: NCI/ADR-RES
OVCAR-5 = system: OVCAR-5
PC-3 = system: PC-3
RPMI-8226 = system: RPMI-8226
SK-MEL-5 = system: SK-MEL-5
SN12C = system: SN12C
SR = system: SR
UACC-62 = system: UACC-62
T47D = system: T47D

Compound	GI50 (ACHN)	GI50 (CAKI-1)	GI50 (COLO 205)	GI50 (EKVX)	GI50 (HCT-15)	GI50 (MCF7)	GI50 (MDA-N)	GI50 (NCI-H23)	GI50 (NCI-H522)	GI50 (NCI/ADR-RES)	GI50 (OVCAR-5)	GI50 (PC-3)	GI50 (RPMI-8226)	GI50 (SK-MEL-5)	GI50 (SN12C)	GI50 (SR)	GI50 (UACC-62)	GI50 (T47D)
Cc1c(S(=O)(=O)c2ccccc2)c(N)n(Cc2ccccc2)c1C	> 100 µM (inactive)	> 100 µM (inactive)	> 100 µM (inactive)	> 100 µM (inactive)	> 100 µM	> 100 µM (inactive)	> 100 µM (inactive)	> 100 µM (inactive)	> 100 µM (inactive)	> 100 µM (inactive)	> 100 µM (inactive)	38.2 µM (inactive)	> 100 µM (inactive)	> 100 µM (inactive)	> 100 µM (inactive)	> 100 µM (inactive)	> 100 µM (inactive)	–
O=C(O)C12C3CCC(CC3)C1(C(=O)O)C1CCC2C1 (configuration not stated)	> 100 µM (inactive)	> 100 µM (inactive)	> 100 µM (inactive)	–	> 100 µM	> 100 µM (inactive)	> 100 µM (inactive)	> 100 µM (inactive)	86.1 µM (inactive)	> 100 µM (inactive)	> 100 µM (inactive)	> 100 µM (inactive)	> 100 µM (inactive)	> 100 µM (inactive)	> 100 µM (inactive)	< 0.01 µM (active)	> 100 µM (inactive)	> 100 µM (inactive)
COc1ccc(/C=C2\CCC(CNc3ccc(OC)cc3)C2=O)cc1 (configuration not stated)	18.7 µM (inactive)	18.7 µM (inactive)	15.7 µM (inactive)	30.3 µM (inactive)	6.78 µM	2.61 µM (inactive)	14.1 µM (inactive)	14.6 µM (inactive)	5.58 µM (inactive)	39.4 µM (inactive)	18.5 µM (inactive)	16.8 µM (inactive)	–	19 µM (inactive)	16 µM (inactive)	–	17.1 µM (inactive)	18.8 µM (inactive)
CCCCNC(=S)N/C=C1\C(=O)Nc2ccccc2C1=O	> 10 µM (inactive)	> 10 µM (inactive)	> 10 µM (inactive)	> 10 µM (inactive)	> 10 µM	> 10 µM (inactive)	–	> 10 µM (inactive)	–	> 10 µM (inactive)	> 10 µM (inactive)	> 10 µM (inactive)	> 10 µM (inactive)	–	> 10 µM (inactive)	> 10 µM (inactive)	> 10 µM (inactive)	> 10 µM (inactive)
Cc1nc2ccccc2n1Cc1nnc(-c2ccccc2)o1	> 100 µM (inactive)	–	74.6 µM (inactive)	> 100 µM (inactive)	> 100 µM	63.1 µM (inactive)	70.3 µM (inactive)	> 100 µM (inactive)	> 100 µM (inactive)	> 100 µM (inactive)	> 100 µM (inactive)	> 100 µM (inactive)	75 µM (inactive)	55 µM (inactive)	> 100 µM (inactive)	43.6 µM (inactive)	> 100 µM (inactive)	57.8 µM (inactive)
CON(C)C(=O)C(C)NC(=O)OC(C)(C)C (configuration not stated)	> 100 µM (inactive)	–	> 100 µM (inactive)	> 100 µM (inactive)	> 100 µM	> 100 µM (inactive)	> 100 µM (inactive)	> 100 µM (inactive)	–	> 100 µM (inactive)	> 100 µM (inactive)	> 100 µM (inactive)	> 100 µM (inactive)	> 100 µM (inactive)	> 100 µM (inactive)	> 100 µM (inactive)	> 100 µM (inactive)	> 100 µM (inactive)
O=c1c2cccnc2ncn1CCCN1CCCC1	> 100 µM (inactive)	> 100 µM (inactive)	97.3 µM (inactive)	> 100 µM (inactive)	–	–	–	> 100 µM (inactive)	> 100 µM (inactive)	–	> 100 µM (inactive)	–	–	> 100 µM (inactive)	> 100 µM (inactive)	> 100 µM (inactive)	> 100 µM (inactive)	–
Cc1c2c(n3c(nc4ccccc43)c1C#N)N(c1ccc(Cl)cc1)CC2	> 100 µM (inactive)	> 100 µM (inactive)	> 100 µM (inactive)	> 100 µM (inactive)	> 100 µM	> 100 µM (inactive)	> 100 µM (inactive)	> 100 µM (inactive)	> 100 µM (inactive)	> 100 µM (inactive)	> 100 µM (inactive)	> 100 µM (inactive)	–	> 100 µM (inactive)	> 100 µM (inactive)	–	> 100 µM (inactive)	–
CON(C)C(=O)[C@H]1C[C@@]1(C)CO	> 100 µM (inactive)	> 100 µM (inactive)	> 100 µM (inactive)	> 100 µM (inactive)	> 100 µM	> 100 µM (inactive)	> 100 µM (inactive)	> 100 µM (inactive)	–	> 100 µM (inactive)	> 100 µM (inactive)	> 100 µM (inactive)	–	> 100 µM (inactive)	> 100 µM (inactive)	> 100 µM (inactive)	> 100 µM (inactive)	> 100 µM (inactive)
O=C1C(Cl)=C(Cl)C(Cl)(Cl)C(Cl)C1(Cl)Cl (configuration not stated)	29.8 µM (inactive)	–	17.9 µM (inactive)	20.8 µM (inactive)	29.6 µM	22.7 µM (inactive)	23.7 µM (inactive)	21.9 µM (inactive)	13.7 µM (inactive)	25.3 µM (inactive)	23.2 µM (inactive)	25 µM (inactive)	19.6 µM (inactive)	13.7 µM (inactive)	20 µM (inactive)	–	16.7 µM (inactive)	21 µM (inactive)
CC1(C)CC2(C)OC(=N)C1(C#N)C2(C#N)C#N (configuration not stated)	7.64 µM (inactive)	1.02 µM (active)	2.56 µM (inactive)	5.02 µM (inactive)	2.36 µM	8.55 µM (inactive)	7.08 µM (inactive)	8.32 µM (inactive)	2.44 µM (inactive)	13 µM (inactive)	14.3 µM (inactive)	16.1 µM (inactive)	5.65 µM (inactive)	8.83 µM (inactive)	10.1 µM (inactive)	–	12.4 µM (inactive)	10.7 µM (inactive)
COc1ccc(-c2ccc(C(=O)C=P(c3ccccc3)(c3ccccc3)c3ccccc3)cc2)cc1	13.3 µM (inactive)	11.4 µM (inactive)	3.94 µM (inactive)	6.59 µM (inactive)	8.59 µM	10.1 µM (inactive)	13.2 µM (inactive)	18.8 µM (inactive)	–	13 µM (inactive)	16.6 µM (inactive)	7.55 µM (inactive)	2.12 µM (inactive)	9.64 µM (inactive)	14.9 µM (inactive)	16.2 µM (inactive)	15.2 µM (inactive)	5.68 µM (inactive)
COP(C)(=O)C1=CCN(C(=O)OCC[Si](C)(C)C)CC1 (configuration not stated)	> 100 µM (inactive)	> 100 µM (inactive)	> 100 µM (inactive)	> 100 µM (inactive)	> 100 µM	> 100 µM (inactive)	> 100 µM (inactive)	> 100 µM (inactive)	> 100 µM (inactive)	> 100 µM (inactive)	> 100 µM (inactive)	> 100 µM (inactive)	> 100 µM (inactive)	> 100 µM (inactive)	–	–	> 100 µM (inactive)	> 100 µM (inactive)
O=c1c2c(c1=O)C1(SCCCS1)c1cc(Cl)ccc1O2	> 100 µM (inactive)	> 100 µM (inactive)	> 100 µM (inactive)	> 100 µM (inactive)	> 100 µM	> 100 µM (inactive)	> 100 µM (inactive)	> 100 µM (inactive)	> 100 µM (inactive)	> 100 µM (inactive)	> 100 µM (inactive)	> 100 µM (inactive)	> 100 µM (inactive)	> 100 µM (inactive)	> 100 µM (inactive)	–	> 100 µM (inactive)	–
CC1=NN(C2=NS(=O)(=O)c3ccccc3N2C)C(=O)C1	> 100 µM (inactive)	> 100 µM (inactive)	> 100 µM (inactive)	> 100 µM (inactive)	> 100 µM	> 100 µM (inactive)	–	> 100 µM (inactive)	> 100 µM (inactive)	> 100 µM (inactive)	> 100 µM (inactive)	> 100 µM (inactive)	–	> 100 µM (inactive)	> 100 µM (inactive)	–	> 100 µM (inactive)	> 100 µM (inactive)
CNc1ccc([S+]([O-])Nc2ccccc2)cc1 (configuration not stated)	84.7 µM (inactive)	–	26.4 µM (inactive)	30.5 µM (inactive)	43.9 µM	56 µM (inactive)	46.1 µM (inactive)	55.7 µM (inactive)	19 µM (inactive)	65.6 µM (inactive)	> 100 µM (inactive)	–	39.8 µM (inactive)	25.8 µM (inactive)	> 100 µM (inactive)	38.2 µM (inactive)	23.4 µM (inactive)	19.5 µM (inactive)
NCCCCN(CCCN)C(=O)OCc1ccccc1	> 100 µM (inactive)	> 100 µM (inactive)	> 100 µM (inactive)	> 100 µM (inactive)	> 100 µM	> 100 µM (inactive)	–	> 100 µM (inactive)	> 100 µM (inactive)	> 100 µM (inactive)	> 100 µM (inactive)	> 100 µM (inactive)	> 100 µM (inactive)	> 100 µM (inactive)	> 100 µM (inactive)	> 100 µM (inactive)	> 100 µM (inactive)	> 100 µM (inactive)
C[n+]1c(-c2ccc(/C=N\NC(=O)c3ccc(C(=O)N/N=C/c4ccc(-c5cn6ccsc6[n+]5C)cc4)cc3)cc2)cn2ccsc21	17.9 µM (inactive)	18.7 µM (inactive)	25 µM (inactive)	15.8 µM (inactive)	16 µM	20.2 µM (inactive)	32.8 µM (inactive)	17.8 µM (inactive)	31.1 µM (inactive)	17.7 µM (inactive)	17.3 µM (inactive)	17.4 µM (inactive)	14.2 µM (inactive)	16.5 µM (inactive)	19.4 µM (inactive)	17.3 µM (inactive)	20 µM (inactive)	–
